Tests used:
Assay type in all cases: cell-based
Pythium splendens = assay: In vitro test on activity against Pythium splendens; conditions: Globisporangium splendens, read-out: growth inhibition of the fungus
Leptosphaeria nodorum = assay: In vitro test on activity against Leptosphaeria nodorum; conditions: Parastagonospora nodorum, read-out: growth inhibition of the fungus
Protocol: The compound to be tested is processed in a culture medium consisting of 1% by weight of glucose, 0.2% by weight of a yeast extract (marmite), 0.5% by weight of a protein (pepton), 2.5% by weight of agar-agar, and 95.8% by weight of water, in petri dishes in concentrations of 3 and 10 ppm. The petri dishes are inoculated with the plant-pathogenic fungus Pyrenophora graminea and then kept at a temperature of 20° C. After 48 hours the growth-inhibiting activity of the compounds is determined visually. For comparison, the known substance (b) (see EXAMPLE XV) is also tested.
Compounds according to the invention are tested on i Leptosphaeria nodorum in the same manner as described in EXAMPLE XIX.

Fusarium culmorum = assay: In vitro test on activity against Fusarium culmorum; conditions: read-out: growth inhibition of the fungus

Row | SMILES | inhibition at 10 ppm (Pythium splendens) [%] | inhibition at 30 ppm (Leptosphaeria nodorum) [%] | inhibition at 30 ppm (Fusarium culmorum) [%]
1 | COc1c(C(C)=O)sc([S+](C)[O-])c1C#N (stereo not drawn) [(25), 2-methylsulphinyl-3-cyano-4-methoxy-5-acetylthiophene] | ≥ 95 | – | –
2 | CC[S+]([O-])c1sc(S(C)(=O)=O)c(Cl)c1C#N (stereo not drawn) [(77), 2-ethylsulphinyl-3-cyano-4-chloro-5-methylsulphonyl-thiophene] | ≥ 95 | – | –
3 | CC[S+]([O-])c1sc(C=O)c(N)c1C#N (stereo not drawn) [(49), 2-ethylsulphinyl-3-cyano-4-amino-5-formylthiophene] | ≥ 95 | – | –
4 | CC[S+]([O-])c1sc(C#N)c(C)c1C#N (stereo not drawn) [(63), 2-ethylsulphinyl-3,5-dicyano-4-methylthiophene] | – | ≥ 85 | –
5 | CCCC[S+]([O-])c1sc(C(=O)c2ccccc2)cc1C#N (stereo not drawn) [(90), 2-n-butylsulphinyl 3-cyano-5-benzoylthiophene] | – | – | ≥ 75
6 | CCCC[S+]([O-])c1sc(C(C)=O)cc1C#N (stereo not drawn) [(44), 2-n-butylsulphinyl-3-cyano-5-acetylthiophene] | – | ≥ 85 | ≥ 75
7 | CCCCCC[S+]([O-])c1sc(C#N)c(N)c1C#N (stereo not drawn) [(38), 2-n-hexylsulphinyl-3,5-dicyano-4-aminothiophene] | – | – | ≥ 75
8 | CCC[S+]([O-])c1sc(C(C)=O)c(Cl)c1C#N (stereo not drawn) [(61), 2-n-propylsulphinyl-3-cyano-4-cloro-5-acetylthiophene] | ≥ 95 | – | ≥ 75
9 | CC[S+]([O-])c1sc(C(=O)c2ccccc2)c(N)c1C#N (stereo not drawn) [(65), 2-ethylsulphinyl-3-cyano-4-amino-5-benzoylthiophene] | – | ≥ 85 | ≥ 75
10 | CC[S+]([O-])c1sc(C(=O)c2ccccc2)cc1C#N (stereo not drawn) [(64), 2-ethylsulphinyl-3-cyano-5-benzoylthiophene] | – | ≥ 85 | ≥ 75
11 | CCOC(=O)c1sc([S+]([O-])CC)c(C#N)c1Cl (stereo not drawn) [(37), 2-ethylsulphinyl 3-cyano-4-chloro-5-ethoxycarbonylthiophene] | – | ≥ 85 | ≥ 75
12 | CCS(=O)(=O)c1sc(S(C)(=O)=O)c(Cl)c1C#N [(84), 2-ethylsulphonyl-3-cyano-4-chloro-5-methylsulphonylthiophene] | ≥ 95 | – | –
13 | CCS(=O)(=O)c1sc(C(C)=O)cc1C#N [(21), 2-ethylsulphonyl-3-cyano-5-acetylthiophene] | ≥ 95 | – | –
14 | C[S+]([O-])c1sc(C=O)c(N)c1C#N (stereo not drawn) [(48), 2-methylsulphinyl-3-cyano-4-amino-5-formylthiophene] | ≥ 95 | – | –
15 | CC[S+]([O-])c1sc(C=O)c(C)c1C#N (stereo not drawn) [(56), 2-ethylsulphinyl-3-cyano-4-methyl-5-formylthiophene] | ≥ 95 | – | –
16 | CCOC(=O)c1sc([S+](C)[O-])c(C#N)c1N (stereo not drawn) [(29), 2-methylsulphinyl-3-cyano-4-amino-5-ethoxycarbonylthiophene] | – | – | ≥ 75
17 | CC[S+]([O-])c1sc(C(C)=O)c(NC)c1C#N (stereo not drawn) [(17), 2-ethylsulphinyl-3-cyano-4-N-methylamino-5-acetylthiophene] | ≥ 95 | ≥ 85 | –
18 | C[S+]([O-])c1sc(S(C)(=O)=O)cc1C#N (stereo not drawn) [(60), 2-methylsulphinyl-3-cyano-5-methylsulphonylthiophene] | ≥ 95 | – | –
19 | CC[S+]([O-])c1sc2cc(Cl)ccc2c1C#N (stereo not drawn) [(20), 2-ethylsulphinyl-3-cyano 6-chloro-benzothiophene] | – | ≥ 85 | –
20 | C[S+]([O-])c1sc(C=O)cc1C#N (stereo not drawn) [(28), 2-methylsulphinyl-3-cyano-5-formylthiophene] | ≥ 95 | – | –
21 | CCC[S+]([O-])c1sc(C(C)=O)c(N)c1C#N (stereo not drawn) [(57), 2-n-propylsulphinyl-3-cyano-4-amino-5-acetylthiophene] | ≥ 95 | – | ≥ 75

Row | SMILES | inhibition at 10 ppm (Pythium splendens) [%] | inhibition at 30 ppm (Leptosphaeria nodorum) [%] | inhibition at 30 ppm (Fusarium culmorum) [%]
22 | CS/C(=C(\C#N)c1ccccc1)[S+](C)[O-] (stereo not drawn) [(93), α-cyano-β-methylsulphinyl)-β-methylthio-styrene, E-isomer] | ≥ 95 | – | ≥ 75
23 | C[S+]([O-])c1sc(C=O)cc1C=O (stereo not drawn) [(70), 2-methylsulphinyl-3,5-diformylthiophene] | ≥ 95 | – | –
24 | CCS(=O)(=O)c1sc(C#N)c(Cl)c1C#N [(22), 2-ethylsulphonyl-3,5 dicyano-4-chlorothiophene] | ≥ 95 | – | ≥ 75
25 | CCCCCCCC[S+]([O-])c1sc(C#N)cc1C#N (stereo not drawn) [(81), 2-n-octylsulphinyl-3,5-dicyanothiophene] | – | – | ≥ 75
26 | CC(=O)COc1c(C(C)=O)sc([S+](C)[O-])c1C#N (stereo not drawn) [(59), 2-methylsulphinyl-3-cyano-4-acetylmethoxy-5-acetylthiophene] | ≥ 95 | – | –
27 | CC[S+]([O-])c1sc(C(=O)c2ccc(Cl)cc2)c(OC)c1C#N (stereo not drawn) [(76), 2-ethylsulphinyl-3-cyano-4-methoxy-5-(4-chlorobenzoyl)thiophene] | – | ≥ 85 | –
28 | C[S+]([O-])c1sc(C=O)c(-c2ccc(Cl)cc2)c1C#N (stereo not drawn) [(26), 2-methylsulphinyl-3-cyano-4-(4-chlorophenyl)-5-formylthiophene] | ≥ 95 | – | –
29 | CC[S+]([O-])c1sc(C=O)c(Cl)c1C#N (stereo not drawn) [(50), 2-ethylsulphinyl-3-cyano-4-chloro-5-formylthiophene] | ≥ 95 | – | –
30 | CCS(=O)(=O)c1sc(C(C)=O)c(Cl)c1C#N [(18), 2-ethylsulphonyl-3-cyano-4-chloro-5-acetylthiophene] | ≥ 95 | – | –
31 | CCC[S+]([O-])c1sc(C#N)c(OC)c1C#N (stereo not drawn) [(55), 2-n-propylsulphinyl-3,5-dicyano-4-methoxythiophene] | ≥ 95 | – | ≥ 75
32 | CC[S+]([O-])c1sc(C#N)c(N(C)C(C)=O)c1C#N (stereo not drawn) [(54), 2-ethylsulphinyl-3,5-dicyano-4-(N-acetyl-N-methylamino)thiophene] | ≥ 95 | – | –
33 | C[S+]([O-])c1sc(C(=O)c2ccccc2)cc1C#N (stereo not drawn) [(30)] | ≥ 95 | – | –
34 | CC[S+]([O-])c1sc(C=O)c(Cl)c1C=O (stereo not drawn) [(83), 2-ethylsulphinyl-3,5-diformyl-4-chlorothiophene] | ≥ 95 | – | –
35 | C[S+]([O-])c1sc2cccc(Cl)c2c1C#N (stereo not drawn) [(11), 2-methylsulphinyl-3-cyano-4-chloro-benzothiophene] | – | – | ≥ 75
36 | CCS(=O)(=O)c1sc(C#N)cc1C#N [(16), 2-ethylsulphonyl-3,5-dicyanothiophene] | ≥ 95 | – | –
37 | CC[S+]([O-])c1sc(C#N)c(-n2cncn2)c1C#N (stereo not drawn) [(68), 2-ethylsulphinyl-3,5-dicyano-4-(1,2,4-triazol-1-yl)thiophene] | ≥ 95 | – | –
38 | CC[S+]([O-])c1sc(C#N)c(-n2ccnc2)c1C#N (stereo not drawn) [(69), 2-ethylsulphinyl-3,5-dicyano-4-(imidazol-1-yl)thiophene] | ≥ 95 | – | –
39 | CCC[S+]([O-])c1sc(C(C)=O)c(C)c1C#N (stereo not drawn) [(62), 2-n-propylsulphinyl-3-cyano-4-methyl-5-acetylthiophene] | – | – | ≥ 75
40 | CC[S+]([O-])c1sc(C#N)c(N)c1C#N (stereo not drawn) [(46), 2-ethylsulphinyl-3,5-dicyano-4-aminothiophene] | ≥ 95 | – | –
41 | CC[S+]([O-])c1sc(C(=O)c2ccccc2)c(C)c1C#N (stereo not drawn) [(91), 2-ethylsulphinyl-3-cyano-4-methyl-5-benzoylthiophene] | – | – | ≥ 75

Reference: patent US4994485A, “Thio compounds having fungicidal activity” (Duphar International Research B.V., priority 1986, dated 1991)
